Test results reported in patent publication US20240158446A1, “CYCLIC COMPOUND HAVING SELECTIVE INHIBITORY ACTION ON KRAS OVER HRAS AND NRAS” (CHUGAI SEIYAKU KABUSHIKI KAISHA, priority 2021, published 2024).

Legend:
[1] = biological target: GDP-bound NRAS wild-type protein (Homo sapiens, UniProt P01111); test: Binding to NRAS by surface plasmon resonance (SPR), Single Cycle Kinetics; conditions: for NRAS/KRAS (ratio of KD value with respect to NRAS to KD value with respect to KRAS) / NRAS/KRAS (ratio of KD value for NRAS to KD value for KRAS): SPR, GDP-bound NRAS wild-type protein vs GDP-bound KRAS wild-type protein; for NRAS/KRAS (ratio of KD value with respect to GDP-bound NRAS wild-type protein to KD value with respect to KRAS): SPR KD ratio NRAS/KRAS, class symbols
Sequence of GDP-bound NRAS wild-type protein (P01111 whole entry): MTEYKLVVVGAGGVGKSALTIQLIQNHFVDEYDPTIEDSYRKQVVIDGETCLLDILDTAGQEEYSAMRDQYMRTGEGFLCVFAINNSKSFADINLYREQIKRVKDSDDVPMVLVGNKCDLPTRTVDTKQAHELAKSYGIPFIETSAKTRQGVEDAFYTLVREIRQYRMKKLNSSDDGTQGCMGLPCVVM

[2] = biological target: GDP-bound HRAS wild-type protein (Homo sapiens, UniProt P01112); test: Binding to HRAS by surface plasmon resonance (SPR), Single Cycle Kinetics; conditions: for HRAS/KRAS (ratio of KD value with respect to HRAS to KD value with respect to KRAS) / HRAS/KRAS (ratio of KD value for HRAS to KD value for KRAS): SPR, GDP-bound HRAS wild-type protein vs GDP-bound KRAS wild-type protein; for HRAS/KRAS (ratio of KD value with respect to GDP-bound HRAS wild-type protein to KD value with respect to KRAS): SPR KD ratio HRAS/KRAS, class symbols
Sequence of GDP-bound HRAS wild-type protein (P01112 whole entry): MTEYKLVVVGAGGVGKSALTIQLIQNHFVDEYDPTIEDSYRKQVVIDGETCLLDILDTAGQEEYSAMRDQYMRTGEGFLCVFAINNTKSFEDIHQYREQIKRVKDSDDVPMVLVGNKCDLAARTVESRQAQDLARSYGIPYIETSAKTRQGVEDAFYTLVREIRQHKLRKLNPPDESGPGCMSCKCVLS

| SMILES | NRAS/KRAS (ratio of KD value with respect to GDP-bound NRAS wild-type protein to KD value with respect to KRAS) [1] | HRAS/KRAS (ratio of KD value with respect to GDP-bound HRAS wild-type protein to KD value with respect to KRAS) [2] | NRAS/KRAS (ratio of KD value for NRAS to KD value for KRAS) [1] | HRAS/KRAS (ratio of KD value for HRAS to KD value for KRAS) [2] | other results |
| --- | --- | --- | --- | --- | --- |
| CCO[C@@H]1C[C@H]2C(=O)NC3(CCC3)C(=O)N(C)[C@@H](C3CCCC3)C(=O)N(CCc3ccccc3)[C@H](C(=O)N3CCOCC3)CC(=O)N(C)[C@@H](CC(C)C)C(=O)N[C@@H]([C@@H](C)CC)C(=O)N(C)CC(=O)N(C)[C@H]3CCCCCN(C3=O)[C@@H](Cc3ccc(C(F)(F)F)cc3)C(=O)N(C)CC(=O)N[C@@H](CCc3cc(F)c(C(F)(F)F)c(F)c3)C(=O)N2C1 [PP0642] |  |  |  |  | NRAS/KRAS (ratio of KD value with respect to NRAS to KD value with respect to KRAS) [1]: B (a compound having 3 or more and less than 10 is denoted as B); HRAS/KRAS (ratio of KD value with respect to HRAS to KD value with respect to KRAS) [2]: B (a compound having 3 or more and less than 10 is denoted as B) |
| CCC[C@H]1C(=O)N[C@@H]([C@@H](C)CC)C(=O)N(C)CC(=O)N(C)[C@H]2C/C=C\CCN(C2=O)[C@@H](Cc2ccc(C(F)(F)F)cc2)C(=O)N(C)CC(=O)N[C@@H](CCc2ccc(C(F)(F)F)c(C3CC3)c2)C(=O)N2C[C@H](OCC)C[C@H]2C(=O)NC2(CC(C)(C)C2)C(=O)N(C)[C@@H](C2CCCC2)C(=O)N(C)[C@H](C(=O)N(C)C)CC(=O)N1C [PP2852] | B (a compound having 3 or more and less than 10 is denoted as B) | B (a compound having 3 or more and less than 10 is denoted as B) |  |  |  |
| CCO[C@@H]1C[C@H]2C(=O)NC3(CCC3)C(=O)N(C)[C@@H](C3CCCC3)C(=O)N(CC)[C@H](C(=O)N3CCOCC3)CC(=O)N(C)[C@@H](CCC(Cl)Cl)C(=O)N[C@@H]([C@@H](C)CC)C(=O)N(C)CC(=O)N(C)[C@H]3CCCCCN(C3=O)[C@@H](Cc3ccc(C(F)(F)F)cc3)C(=O)N(C)CC(=O)N[C@@H](CCc3cc(F)c(C(F)(F)F)c(F)c3)C(=O)N2C1 [PP0949] |  |  | A (a compound having 10 or more and less than 20 is denoted as A) | A (a compound having 10 or more and less than 20 is denoted as A) |  |
| CCO[C@@H]1C[C@H]2C(=O)NC3(CCC3)C(=O)N(C)[C@@H](C3CCCC3)C(=O)N(C)[C@H](C(=O)N(C)C)CC(=O)N(C)[C@@H](CC(C)C)C(=O)N[C@@H]([C@@H](C)CC)C(=O)N(C)CC(=O)N(C)[C@H]3C[C@@H](C)CCN(C3=O)[C@@H](Cc3ccc(C(F)(F)F)cc3)C(=O)N(C)CC(=O)N[C@@H](CCc3cc(F)c(C(F)(F)F)c(F)c3)C(=O)N2C1 [PP1018] |  |  | C (A compound having a KD ratio of 0.1 or more and less than 3 is denoted as C) | B (a compound having 3 or more and less than 10 is denoted as B) |  |
| CCC[C@H]1C(=O)N[C@@H]([C@@H](C)CC)C(=O)N(C2CC2)CC(=O)N(C)[C@H]2C/C=C\CCN(C2=O)[C@@H](CC2CCCCC2)C(=O)N(C)CC(=O)N[C@@H](CCc2ccc(C(F)(F)F)c(OC)c2)C(=O)N2C[C@H](OCC)C[C@H]2C(=O)N(C)C2(CCC2)C(=O)N(C)[C@@H](C2CCCC2)C(=O)N(C)[C@H](C(=O)N(C)C)CC(=O)N1C [PP2340] |  |  | B (a compound having 3 or more and less than 10 is denoted as B) | B (a compound having 3 or more and less than 10 is denoted as B) |  |
| CCC[C@H]1C(=O)N[C@@H]([C@@H](C)CC)C(=O)N(C)CC(=O)N(C)[C@H]2C/C=C\CCN(C2=O)[C@@H](Cc2ccc(C(F)(F)F)cc2)C(=O)N(C)CC(=O)N[C@@H](CCc2cc(Cl)c(C(F)F)c(Cl)c2)C(=O)N2C[C@H](OCC)C[C@H]2C(=O)NC2(CC(C)(C)C2)C(=O)N(C)[C@@H](C2CCCC2)C(=O)N(C)[C@H](C(=O)N(C)C)CC(=O)N1C [PP2865] | A (a compound having 10 or more and less than 20 is denoted as A) | A (a compound having 10 or more and less than 20 is denoted as A) |  |  |  |
| CCOC[C@H]1C(=O)N[C@@H]([C@@H](C)CC)C(=O)N(C)CC(=O)N(C)[C@H]2C/C=C\CCN(C2=O)[C@@H](Cc2ccc(C(C)=O)cc2)C(=O)N(C)CC(=O)N[C@@H](CCc2ccc(C(F)(F)F)c(OC)c2)C(=O)N2C[C@@H](C)C[C@H]2C(=O)NC2(CC(C)(C)C2)C(=O)N(C)[C@@H](C2CCCC2)C(=O)N(C)[C@H](C(=O)N(C)CC)CC(=O)N1C [PP2703] | AA (a compound having 20 or more is denoted as AA) | A (a compound having 10 or more and less than 20 is denoted as A) |  |  |  |
| CCC[C@H]1C(=O)N[C@@H]([C@@H](C)CC)C(=O)N(C)CC(=O)N(C)[C@H]2C/C=C\CCN(C2=O)[C@@H](Cc2ccc(C(F)(F)F)cc2)C(=O)N(C)CC(=O)N[C@@H](CCc2cc(C)c(C(F)F)c(F)c2)C(=O)N2C[C@H](OCC)C[C@H]2C(=O)NC2(CC(C)(C)C2)C(=O)N(C)[C@@H](C2CCCC2)C(=O)N(C)[C@H](C(=O)N(C)C)CC(=O)N1C [PP2860] | A (a compound having 10 or more and less than 20 is denoted as A) | A (a compound having 10 or more and less than 20 is denoted as A) |  |  |  |
| CCC[C@H]1C(=O)N[C@@H]([C@@H](C)CC)C(=O)N(C)CC(=O)N(C)[C@H]2C/C=C\CCN(C2=O)[C@@H](Cc2ccc(C)cc2)C(=O)N(C)CC(=O)N[C@@H](CCc2ccc(CC)c(Cl)c2)C(=O)N2C[C@H](OCC)C[C@H]2C(=O)NC2(CC(C)(C)C2)C(=O)N(C)[C@@H](C(CC)CC)C(=O)N(C)[C@H](C(=O)N(C)C)CC(=O)N1C [PP2779] | A (a compound having 10 or more and less than 20 is denoted as A) | A (a compound having 10 or more and less than 20 is denoted as A) |  |  |  |
| CC[C@H](C)[C@@H]1NC(=O)[C@H](CC2CC2)N(C)C(=O)C[C@@H](C(=O)N(C)CC)N(C)C(=O)[C@H](C2CCCC2)N(C)C(=O)C2(CC(C)(C)C2)NC(=O)[C@@H]2C[C@@H](F)CN2C(=O)[C@H](CCc2cc(F)c(C(F)(F)F)c(F)c2)NC(=O)CN(C)C(=O)[C@H](Cc2ccc(C)cc2)N2CC/C=C\C[C@@H](C2=O)N(C)C(=O)CN(C)C1=O [PP2802] | AA (a compound having 20 or more is denoted as AA) | A (a compound having 10 or more and less than 20 is denoted as A) |  |  |  |
| CCO[C@@H]1C[C@H]2C(=O)NC3(CC(C)(C)C3)C(=O)N(C)[C@@H](C(CC)CC)C(=O)N(C)[C@H](C(=O)N3CCCC3)CC(=O)N(C)[C@@H](COC)C(=O)N[C@@H]([C@@H](C)CC)C(=O)N(C)CC(=O)N(C)[C@H]3C/C=C\CCN(C3=O)[C@@H](Cc3ccc(C)cc3)C(=O)N(C)CC(=O)N[C@@H](CCc3cc(F)c(C(F)(F)F)c(F)c3)C(=O)N2C1 [PP2139] |  |  | AA (a compound having 20 or more is denoted as AA) | A (a compound having 10 or more and less than 20 is denoted as A) |  |
| CC[C@H](C)[C@@H]1NC(=O)[C@@H](CC(C)C)N(C)C(=O)C[C@@H](C(=O)N2CCOCC2)N(C)C(=O)[C@H](C2CCCC2)N(C)C(=O)C2(CCCC2)NC(=O)[C@@H]2CCCN2C(=O)[C@H](CCc2cc(F)c(C(F)(F)F)c(F)c2)NC(=O)CN(C)C(=O)[C@H](Cc2ccc(C(F)(F)F)cc2)N2CCCC[C@@H](C2=O)N(C)C(=O)CN(C)C1=O [PP0591] |  |  |  |  | NRAS/KRAS (ratio of KD value with respect to NRAS to KD value with respect to KRAS) [1]: B (a compound having 3 or more and less than 10 is denoted as B); HRAS/KRAS (ratio of KD value with respect to HRAS to KD value with respect to KRAS) [2]: B (a compound having 3 or more and less than 10 is denoted as B) |
| C=CCCC[C@H]1C(=O)N[C@@H]([C@@H](C)CC)C(=O)N(C)CC(=O)N(C)[C@H]2CCCCCN(C2=O)[C@@H](Cc2ccc(C(F)(F)F)cc2)C(=O)N(C)CC(=O)N[C@@H](CCc2cc(F)c(C(F)(F)F)c(F)c2)C(=O)N2C[C@H](OCC)C[C@H]2C(=O)N[C@](C)(CC=C)C(=O)N(C)[C@@H](C2CCCC2)C(=O)N(C)[C@H](C(=O)N2CCOCC2)CC(=O)N1C [PP0880] |  |  | B (a compound having 3 or more and less than 10 is denoted as B) | B (a compound having 3 or more and less than 10 is denoted as B) |  |
| CCO[C@@H]1C[C@H]2C(=O)NC3(CCC3)C(=O)N(C)[C@@H](C3CCCC3)C(=O)N(C)[C@H](C(=O)N(C)C)CC(=O)N(C)[C@@H](CC3CCCC3)C(=O)N[C@@H]([C@@H](C)CC)C(=O)N(C)CC(=O)N(C)[C@H]3CCCCN(C3=O)[C@@H](Cc3ccc(C(F)(F)F)cc3)C(=O)N(C)CC(=O)N[C@@H](CCc3cc(F)c(C(F)(F)F)c(F)c3)C(=O)N2C1 [PP0700] |  |  |  |  | NRAS/KRAS (ratio of KD value with respect to NRAS to KD value with respect to KRAS) [1]: C (A compound having a KD ratio of 0.1 or more and less than 3 is denoted as C); HRAS/KRAS (ratio of KD value with respect to HRAS to KD value with respect to KRAS) [2]: B (a compound having 3 or more and less than 10 is denoted as B) |
| CCC[C@H]1C(=O)N[C@@H]([C@@H](C)CC)C(=O)N(C)CC(=O)N(C)[C@H]2C/C=C\CCN(C2=O)[C@@H](Cc2ccc(C(F)(F)F)cc2)C(=O)N(C)CC(=O)N[C@@H](CCc2ccc(Cl)c(Cl)c2)C(=O)N2C[C@H](OCC)C[C@H]2C(=O)NC2(CC(C)(C)C2)C(=O)N(C)[C@@H](C(CC)CC)C(=O)N(C)[C@H](C(=O)N(C)C)CC(=O)N1C [PP2175] |  |  | AA (a compound having 20 or more is denoted as AA) | A (a compound having 10 or more and less than 20 is denoted as A) |  |
